Test results: patent EP4782453A1 (Beyang Therapeutics Co., Ltd., priority 2023, dated 2025)

Columns and labels:
Assay type in all cases: cell-based
MEIS1 gene expression [1] = experiment: Inhibition of MEIS1 gene expression in human tumor cells (qRT-PCR), MOLM-13; conditions: MOLM-13 (carrying MLL-AF9), 48 hours of incubation, relative MEIS1 gene expression vs GAPDH
In short: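 MV-4-11 (MLL-AF4; IMDM, 10% FBS), MOLM-13 (MLL-AF9) and OCI-AML3 (NPM1c) (RPMI-1640, 20% FBS) seeded at 100,000 cells/well and treated 48 h with serially diluted compound. MEIS1 mRNA measured by one-step probe qRT-PCR from total RNA, triplicates, GAPDH primer/probe included; EC50 for inhibition of relative MEIS1 expression.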

[2] = system: MV-4-11 (carrying MLL-AF4); experiment: Inhibition of proliferation of human tumor cells (Alamar Blue, 7 days), MV-4-11; conditions: Homo sapiens, MV4-11, 168 h, MV-4-11 cells (carrying MLL-AF4), method calls the value GI50
In short: (§1)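 Cells seeded at 4,000/well (MV-4-11, MOLM-13) or 3,000/well (KG-1a) in serum-supplemented IMDM or RPMI-1640, 37°C, 5% CO2, then exposed to 3- or 4-fold compound dilutions in duplicate for 7 days. Alamar Blue fluorescence read; GI50 derived against Day 7 0.1% DMSO (high) and Day 0 (low) controls.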

KG-1a (wild-type MLL) = experiment: Inhibition of proliferation of human tumor cells (Alamar Blue, 7 days), KG-1a control cell line; conditions: 168 h, KG-1a cells (wild-type MLL, control cell line), method calls the value GI50
In short: as §1

MEIS1 gene expression [3] = experiment: Inhibition of MEIS1 gene expression in human tumor cells (qRT-PCR), OCI-AML3; conditions: OCI-AML-3, OCI-AML3 (carrying NPM1c), 48 hours of incubation, relative MEIS1 gene expression vs GAPDH
Description: Experimental Example 3: Evaluation of Inhibitory Activity of Compounds Against MEISI Gene Expression in Human Tumor Cells
The effect of test samples on MEIS1 gene expression in vitro cultured human leukemia cells MV-4-11 (carrying MLL-AF4), MOLM-13 (carrying MLL-AF9), and OCI-AML3 (carrying NPM1c) was studied.
• Human acute lymphoblastic leukemia cells MV-4-11, purchased from American Type Culture Collection, Catalog Number: CRL-9591; • Human acute myeloid leukemia cells MOLM-13, purchased from COBIOER BIOSCIENCES CO., LTD, Catalog Number: CBP60678; • Human acute myeloid leukemia cells OCI-AML3, purchased from COBIOER BIOSCIENCES CO., LTD, Catalog Number: CBP60817; • MEIS1 Primer/Probe, purchased from IDT, Catalog Number: 40831613; and • GAPDH Primer/Probe, purchased from IDT, Catalog Number: 22214836.
MV-4-11 cells were cultured in an IMDM medium containing 10% fetal bovine serum, or MOLM-13 and OCI-AML3 cells were cultured in an RPMI-1640 medium containing 20% fetal bovine serum, each supplemented with 100 U·mL^-1 penicillin and 100 µg·mL^-1 streptomycin. These cells were cultured at 37°C with 5% CO2. The suspensions of individual cell lines were prepared in their respective media and seeded into 48-well plates at a density of 100,000 cells/well. On the day of the experiment, a compound stock solution was diluted in a 6-fold gradient using DMSO. Each gradient-diluted stock solution was then further diluted 250-fold with a complete medium to prepare a series of working solutions at different concentrations. Next, 250 µL of working solution (containing the complete medium with a 2-fold serial concentration of the test compound or a positive control compound, or containing a control complete medium) was added to each well. After 48 hours of incubation, cells from the 48-well plate were collected into 1 mL centrifuge tubes, centrifuged at 1000 rpm for 5 minutes, and the complete medium was removed. Cells were washed twice with 1 mL PBS and centrifuged to remove PBS. Total RNA was extracted using the RNeasy Mini Kit (250) (QIAGEN, 74106). The threshold cycle (Ct) value for gene expression was determined using the HiScript II U+ One Step qRT-PCR Probe Kit (Vazyme) (Vazyme, Q223-01), with 3 replicates per sample. The prepared reaction mixture was placed in an ABI 7500 real-time PCR instrument, and the reaction proceeded following the procedures below. [formula]
Next, for the relative MEIS1 gene expression, the concentration (EC50) that inhibits 50% of relative MEIS1 gene expression was calculated using GraphPad Prism 8 software.

[4] = system: MOLM-13 (carrying MLL-AF9); experiment: Inhibition of proliferation of human tumor cells (Alamar Blue, 7 days), MOLM-13; conditions: Homo sapiens, 168 h, MOLM-13 cells (carrying MLL-AF9), method calls the value GI50
In short: as §1

CCN(C(=O)c1cc(F)ccc1-c1cc(C2CN([C@H](CCCN3C[C@H]4C[C@@H]3CO4)C(C)C)C2)cn2c(C)ncc12)C(C)C [Example 379, N-ethyl-5-fluoro-2-(3-methyl-6-{1-[(3R)-2-methyl-6-[(1R,4R)-2-oxa-5-azabicyclo[2.2.1]heptan-5-yl]hexan-3-yl]azacyclobutan-3-yl}imidazo[1,5-a]pyridin-8-yl)-N-(isopropyl)benzamide]
EC50 (MEIS1 gene expression [1]): 2 nM
IC50 [2]: 0.4 nM
IC50 (KG-1a (wild-type MLL)): 11500 nM
EC50 (MEIS1 gene expression [3]): 7.5 nM
IC50 [4]: 2.5 nM

CCN(C(=O)c1cc(F)ccc1-c1cc(C2CN([C@H](CCCN3CCN(CCO)CC3)C(C)C)C2)cn2c(C)ncc12)C(C)C [Example 398, N-ethyl-5-fluoro-2-(6-{1-[(3R)-6-[4-(2-hydroxyethyl)piperazin-1-yl]-2-methylhexan-3-yl]azacyclobutan-3-yl}-3-methylimidazo[1,5-a]pyridin-8-yl)-N-(isopropyl)benzamide]
EC50 (MEIS1 gene expression [1]): 2.6 nM
IC50 [2]: 1.1 nM
IC50 (KG-1a (wild-type MLL)): > 20000 nM
EC50 (MEIS1 gene expression [3]): 13 nM
IC50 [4]: 4.3 nM
